This note sets out measurements from patent US20210244720A1, “Therapeutic Tyrosine Kinase Inhibitors for Relapsing Multiple Sclerosis (RMS)” (Genzyme Corporation, priority 2020, published 2021).

The data set concerns CYP3A. Put plainly: Preclinical drug metabolism studies, CYP3A. It is filed as in vitro ADME. The text has this:
See Table 12 for the list of drugs not to be used.

Structures are written as SMILES.

For `C=CC(=O)N1CCC[C@@H](n2c(=O)n(-c3ccc(Oc4ccccc4)cc3)c3c(N)nccc32)C1` [the BTK inhibitor, (R)-1-(1-acryloylpiperidin-3-yl)-4-amino-3-(4-phenoxyphenyl)-1H-imidazo[4,5-c]pyridin-2(3H)-one], the CYP3A metabolism entry is reported as “substrate”.
